{"source": "paper PMC11984407", "about": "“A natural small molecule isoginkgetin alleviates hypercholesterolemia and atherosclerosis by targeting ACLY” (Theranostics, 2025)", "key": {"[1]": {"test_system": "high and very high cardiovascular risk patients intolerant to statins", "set-up": "method as in PMID 36876740", "conditions": "statin-intolerant patients, LDL-C ≥100 mg/dL; cited from earlier work"}, "rhesus monkeys": {"test_system": "rhesus monkeys", "set-up": "method as in PMID 36873173", "conditions": "two weeks; cited from earlier work"}, "[2]": {"test": "Copper-induced LDL oxidation, agarose gel electrophoresis", "conditions": "varying concentrations, copper 5 μM", "procedure": "Prior to oxidation, EDTA was removed from LDL solutions (YB-001; Yiyuan Biotechnologies, Guangzhou, China). Subsequently, LDL solutions at a concentration of 0.2 mg/mL were incubated with varying concentrations of ISOGK in PBS for one h at 37 °C. The oxidation process was initiated by combining both native LDL and LDL pretreated with ISOGK with copper sulfate (99.0% purity; Jinshanting New Chemical Reagent Factory, Shanghai, China) to achieve a final copper concentration of 5 μM in PBS. This mixture was then incubated at 37 °C. Agarose gel electrophoresis was performed utilizing 0.5% agarose gels prepared in a sodium barbital buffer, following the stipulated electrophoretic methodology. The procedure was carried out in a 0.075 M sodium barbital buffer at a constant voltage of 55 V for a duration of one h. The relative electrophoretic mobility (REM) was determined by calculating the ratio of the migration distance of oxidized LDL to that of native LDL."}}}
{"compound": "CC(C)(CCCCCC(O)CCCCCC(C)(C)C(=O)O)C(=O)O", "note": "[Bempedoic acid, bempedoic acid]", "values": [{"measurement": "primary composite endpoint vs placebo", "setting": "[1]", "value": "slight reduction in the primary composite endpoint"}]}
{"compound": "CC(C)c1c(C(=O)Nc2ccccc2)c(-c2ccccc2)c(-c2ccc(F)cc2)n1CC[C@@H](O)C[C@@H](O)CC(=O)O", "note": "[atorvastatin]", "values": [{"measurement": "LDL-C reduction from the baseline", "setting": "rhesus monkeys", "value": 19.4, "unit": "%"}]}
{"compound": "Vitamin E [reference compound]", "values": [{"measurement": "antioxidant activity against copper-induced LDL oxidation (REM)", "setting": "[2]", "value": "retards LDL"}]}
